Like-named read-outs stand apart in the source and are kept apart here.
Legend:
Rat [1] = experiment: in vivo; type: in vivo
in vivo [2] = conditions: rat, in vivo, po
Text: (§1) Five days subacute toxicity in rats per os
(§2) Animals: 5 female rats for each group, average body weight: 150g.

rats [3] = experiment: in vivo; conditions: 5 days, rats, per os
Text: as §1, §2

rats [4] = type: in vivo, rat; conditions: for Gastrolesive effect, relative potency to piroxicam / Average number of lesions per animal / Gastrolesive effect, relative potency to naproxen: male rats, single oral administration; for Average number of lesions per animal: 100 mg/kg (maximum tested dose)
Protocol: The test was modified by increasing the fast period to 70 hours and giving the total dose of substance in one single oral administration.
Animals: 10 male rats for each group, average body weight: 150g.

pyresis = experiment: Antipyretic activity according to Burn et al.; type: in vivo, rat; conditions: for Reduction of the pyresis at hour 4: female rats
Text: Animals: 6 female rats for each group, average body weight 200 g.

phenylquinone writhes = experiment: Analgesic activity according to Hendershot et al., phenylquinone writhes, modified; type: in vivo, mouse
Protocol: Analgesic activity according to HENDERSHOT et al., Jour. Pharm.
The test was modified by numbering the writhes only along the time interval from 5 to 15 minutes since the injection of phenylquinone. The injection was made 2 hours after the oral administration of the compound to be tested.
Animals: 8 female mice for each group, average body weight: 25g

carrageenin paw edema = experiment: Antiinflammatory activity according to Winter et al., carrageenin paw edema, modified; type: in vivo, rat
Protocol: Antiinflammatory activity according to WINTER et al., Proc. Soc. Exp. Biol. Med.; 111, 544; 1962.
The test was modified in that the injection of carrageenin and the administration of the compound by gastric gavage were carried out simultaneously and the paw edema was measured at the plethysmograph after 4 hours.
Animals: 6 female rats for each group, average body weight: 150g

Rat [5] = conditions: per os, literature value (footnotes a, b); cited from earlier work
in vivo [6] = type: in vivo; conditions: rat, in vivo, po; read-out: LD 50 (Litchfield and Wilcoxon)
in vivo [7] = conditions: mouse, po
[8] = 200 mg/kg/day, read-out: % of dead animals
[9] = 50 mg/g (so in the source) per os
[10] = 100 mg/g (so in the source) per os
[11] = Mus musculus, 50 mg/kg oral, 2 h before phenylquinone, 5-15 min, female mice
[12] = Mus musculus, 100 mg/kg oral, 2 h before phenylquinone, 5-15 min, female mice
[13] = Rattus norvegicus, po, 4 h, 50 mg/kg per os, female rats, read-out: % inhibition of the edema after 4 hours
[14] = Rattus norvegicus, po, 4 h, 100 mg/kg per os, female rats, read-out: % inhibition of the edema after 4 hours

SMILES | LD 50, relative ratio to piroxicam (Rat [1]; per os) | Subacute toxicity, relative ratio to piroxicam (rats [3]) | Gastrolesive effect, relative potency to piroxicam (rats [4]) | LD 50, relative ratio to piroxicam (Mouse; per os) | LD50 (in vivo [6]) [mg/kg] | Subacute toxicity, relative ratio to naproxen (rats [3]) | Average number of lesions per animal (rats [4]) | Gastrolesive effect, relative potency to naproxen (rats [4]) | Antipyretic relative potency to naproxen (pyresis; [9]) | Antipyretic relative potency to piroxicam (pyresis; [9]) | Reduction of the pyresis at hour 4 (pyresis; [9]) [°C] | Antipyretic relative potency to naproxen (pyresis; [10]) | Antipyretic relative potency to piroxicam (pyresis; [10]) | Reduction of the pyresis at hour 4 (pyresis; [10]) [°C] | Analgesic relative potency to naproxen (phenylquinone writhes; 50 mg/kg oral) | Analgesic relative potency to piroxicam (phenylquinone writhes; 50 mg/kg oral) | Analgesic relative potency to naproxen (phenylquinone writhes; 100 mg/kg oral) | Analgesic relative potency to piroxicam (phenylquinone writhes; 100 mg/kg oral) | inhibition in vivo at 50 mg/kg (phenylquinone writhes; [11]) [%] | inhibition in vivo at 100 mg/kg (phenylquinone writhes; [12]) [%] | other results
CN1C(C(=O)Nc2ccccn2)=C(O)c2ccccc2S1(=O)=O [Piroxicam, piroxicam, reference compound] | 1 | 1 | 1 | 1 |  |  |  |  |  |  |  |  |  |  |  |  |  |  |  |  | mortality at 120 h (in vivo [2]; 20 mg/kg/day): 0%; mortality (in vivo [2]; 30 mg/kg/day): 6%; mortality at 120 h (in vivo [2]; 30 mg/kg/day): 40%; Gastric ulcerogenicity (in words) (rats [4]; rat, in vivo): considerable gastrolesive power; Reduction of the pyresis at hour 4 (pyresis; 10 mg/g (so in the source) per os): 0.89 °C; inhibition in vivo at 10 mg/kg (phenylquinone writhes; Mus musculus, 10 mg/kg oral, 2 h before phenylquinone, 5-15 min, female mice): 46%; inhibition in vivo at 10 mg/kg (carrageenin paw edema; Rattus norvegicus, po, 4 h, 10 mg/kg per os, female rats, read-out: % inhibition of the edema after 4 hours): 45%; LD 50 (Litchfield and Wilcoxon) (Rat [5]): 270 mg/kg
CN(C)CCCNC(=O)c1nn(-c2ccccc2)c2c1N(C)S(=O)(=O)c1ccccc1-2 [Compound I-2] | 8.9 | 10 | 100 | 3.8 | 2400 | 4 | 0 | > 20 | 0.5 | 0.7 | 0.58 | 0.8 | 1.0 | 0.89 | 2.1 | 1.5 | 2.8 | 2.0 | 68 | 92 | LD 50, relative ratio to naproxen (Rat [1]; per os): 4.4; mortality at 120 h (in vivo [2]; [8]): 0%; Antiinflammatory relative potency to naproxen (carrageenin paw edema; 50 mg/kg per os): 0.6; Antiinflammatory relative potency to piroxicam (carrageenin paw edema; 50 mg/kg per os): 0.3; Antiinflammatory relative potency to naproxen (carrageenin paw edema; 100 mg/kg per os): 0.8; Antiinflammatory relative potency to piroxicam (carrageenin paw edema; 100 mg/kg per os): 0.4; inhibition in vivo at 50 mg/kg (carrageenin paw edema; [13]): 12%; inhibition in vivo at 100 mg/kg (carrageenin paw edema; [14]): 17%; LD 50, relative ratio to naproxen (Mouse; per os): 1.1; LD50 (in vivo [7]): 1380 mg/kg
CCN1CCCC1CNC(=O)c1nn(-c2ccccc2)c2c1N(C)S(=O)(=O)c1ccccc1-2 (centres unmarked) [Compound I-24] | 3.9 | 10 | 100 | 2.1 | 1060 | 4 | 0 | > 20 | 0.7 | 0.9 | 0.81 | 1.1 | 1.4 | 1.24 | 0.9 | 0.7 | 1.4 | 1.0 | 30 | 47 | mortality at 120 h (in vivo [2]; [8]): 0%; Antiinflammatory relative potency to naproxen (carrageenin paw edema; 50 mg/kg per os): 1.8; Antiinflammatory relative potency to piroxicam (carrageenin paw edema; 50 mg/kg per os): 0.8; Antiinflammatory relative potency to naproxen (carrageenin paw edema; 100 mg/kg per os): 2.1; Antiinflammatory relative potency to piroxicam (carrageenin paw edema; 100 mg/kg per os): 1.0; inhibition in vivo at 50 mg/kg (carrageenin paw edema; [13]): 38%; inhibition in vivo at 100 mg/kg (carrageenin paw edema; [14]): 45%; LD50 (in vivo [7]): 760 mg/kg
CN(C)CCCNC(=O)c1nn(-c2cccc(F)c2)c2c1N(C)S(=O)(=O)c1ccccc1-2 [Compound I-21] | 8.4 | 17 | 100 | 4.2 | 2260 | 7 | 0 | > 20 | 0.4 | 0.5 | 0.47 | 0.7 | 0.8 | 0.75 | 1.4 | 1.0 | 2.0 | 1.4 | 47 | 65 | LD 50, relative ratio to naproxen (Rat [1]; per os): 4.2; mortality at 120 h (in vivo [2]; 350 mg/kg/day, read-out: % of dead animals): 0%; Antiinflammatory relative potency to naproxen (carrageenin paw edema; 50 mg/kg per os): 0.6; Antiinflammatory relative potency to piroxicam (carrageenin paw edema; 50 mg/kg per os): 0.3; Antiinflammatory relative potency to naproxen (carrageenin paw edema; 100 mg/kg per os): 0.9; Antiinflammatory relative potency to piroxicam (carrageenin paw edema; 100 mg/kg per os): 0.4; inhibition in vivo at 50 mg/kg (carrageenin paw edema; [13]): 12%; inhibition in vivo at 100 mg/kg (carrageenin paw edema; [14]): 19%; LD 50, relative ratio to naproxen (Mouse; per os): 1.2; LD50 (in vivo [7]): 1520 mg/kg
CN1c2c(C(=O)NCCCNC3CCCCC3)nn(-c3ccccc3)c2-c2ccccc2S1(=O)=O [Compound I-4] |  | 5 | 100 |  | 1090 | 2 | 0 | > 20 | 1.2 | 1.6 | 1.40 | 1.3 | 1.7 | 1.47 | 1.3 | 0.9 | 1.8 | 1.3 | 42 | 59 | LD 50, relative ratio to piroxicam (Rat [1]; in vivo): 4.0; mortality at 120 h (in vivo [2]; 100 mg/kg/day, read-out: % of dead animals): 0%; mortality (in vivo [2]; 100 mg/kg/day, read-out: % of dead animals per day): 0%; mortality at 120 h (in vivo [2]; [8]): 20%; mortality (in vivo [2]; 200 mg/kg/day, read-out: % of dead animals per day): 4%; Antiinflammatory relative potency to naproxen (carrageenin paw edema; 50 mg/kg per os): 1.7; Antiinflammatory relative potency to piroxicam (carrageenin paw edema; 50 mg/kg per os): 0.8; Antiinflammatory relative potency to naproxen (carrageenin paw edema; 100 mg/kg per os): 2.4; Antiinflammatory relative potency to piroxicam (carrageenin paw edema; 100 mg/kg per os): 1.1; inhibition in vivo at 50 mg/kg (carrageenin paw edema; [13]): 36%; inhibition in vivo at 100 mg/kg (carrageenin paw edema; [14]): 50%; LD 50, relative ratio to piroxicam (Mouse; in vivo): 2.0; LD50 (in vivo [7]): 720 mg/kg

Reference: patent US4378358A, “Benzothiazinopyrazoles having pharmacological activity” (Mediolanum Farmaceutici s.r.l., priority 1980, dated 1983)
